Reference: PMC7377239, “Cardiovascular Effects of Polychlorinated Biphenyls and Their Major Metabolites” (Environmental Health Perspectives, 2020)
Counter-ions that a name gives are not always drawn. Like-named read-outs stand apart in the source and are kept apart here.

Test system: iCell cardiomyocytes (human iPSC-derived cardiomyocytes)
Assay: High-content imaging of cytotoxicity and mitochondrial integrity in iPSC-CMs
Type: cell-based
Conditions: Homo sapiens; for viability at 0.01 µM / activity at 0.01 µM / viability at 0.1 µM / activity at 0.1 µM / viability at 1 µM / activity at 1 µM / viability at 10 µM / activity at 10 µM / viability at 100 µM / activity at 100 µM: 0.00 µM = 100.00; for viability at 0.1 µM / activity at 0.1 µM: 0.10 µM
In short: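 Cardiomyocytes grown on gelatinized 384-well plates received fresh medium on the experiment day and were then exposed to chemicals at 0.01–100μM. Nuclei and mitochondria were labeled with Hoechst 33342 and MitoTracker™ Orange, then fixed, and imaged on an ImageXpress® Micro Confocal system. Four-parameter logistic concentration–response fits in R, with a one-standard-deviation vehicle cutoff, gave point-of-departure values.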

[1] = Cardiomyocyte, 1.5 h, read-out: cm.cam.90min
[2] = Cardiomyocyte, 1.5 h, read-out: cm.mii.90min
[3] = Cardiomyocyte, 1.5 h, read-out: cm.mito.90min
[4] = Cardiomyocyte, 1.5 h, read-out: cm.tc.90min
[5] = Cardiomyocyte, 24 h, read-out: cm.cam.24hrs
[6] = Cardiomyocyte, 24 h, read-out: cm.mii.24hrs
[7] = Cardiomyocyte, 24 h, read-out: cm.mito.24hrs
[8] = Cardiomyocyte, 24 h, read-out: cm.tc.24hrs
[9] = iPSC-CM, 1.5 h, iPSC-CM, read-out: cm.cam.90min POD
[10] = iPSC-CM, 1.5 h, iPSC-CM, read-out: cm.mii.90min POD
[11] = iPSC-CM, 1.5 h, iPSC-CM, read-out: cm.mito.90min POD
[12] = iPSC-CM, 1.5 h, iPSC-CM, read-out: cm.tc.90min POD
[13] = iPSC-CM, 24 h, iPSC-CM, read-out: cm.cam.24hrs POD
[14] = iPSC-CM, 24 h, iPSC-CM, read-out: cm.mii.24hrs POD
[15] = iPSC-CM, 24 h, iPSC-CM, read-out: cm.mito.24hrs POD
[16] = iPSC-CM, 24 h, iPSC-CM, read-out: cm.tc.24hrs POD

## O=S(=O)(O)Oc1ccc(-c2ccc(Cl)cc2)cc1 [4'-yl PCB 3 sulfate]
[1]
  viability at 0.01 µM: 90.6%
  viability at 0.1 µM: 97.2%
  viability at 1 µM: 101%
  viability at 10 µM: 102%
  viability at 100 µM: 96.5%
[2]
  activity at 0.01 µM: 111%
  activity at 0.1 µM: 109%
  activity at 1 µM: 109%
  activity at 10 µM: 107%
  activity at 100 µM: 113%
[3]
  activity at 0.01 µM: 90.4%
  activity at 0.1 µM: 97.2%
  activity at 1 µM: 101%
  activity at 10 µM: 102%
  activity at 100 µM: 96.7%
[4]
  viability at 0.01 µM: 90.5%
  viability at 0.1 µM: 97.5%
  viability at 1 µM: 102%
  viability at 10 µM: 102%
  viability at 100 µM: 96.7%
[5]
  viability at 0.01 µM: 97.3%
  viability at 0.1 µM: 105%
  viability at 1 µM: 107%
  viability at 10 µM: 102%
  viability at 100 µM: 104%
[6]
  activity at 0.01 µM: 98.4%
  activity at 0.1 µM: 111%
  activity at 1 µM: 98.9%
  activity at 10 µM: 92%
  activity at 100 µM: 82.3%
[7]
  activity at 0.01 µM: 95.5%
  activity at 0.1 µM: 106%
  activity at 1 µM: 108%
  activity at 10 µM: 101%
  activity at 100 µM: 103%
[8]
  viability at 0.01 µM: 97.4%
  viability at 0.1 µM: 106%
  viability at 1 µM: 107%
  viability at 10 µM: 102%
  viability at 100 µM: 105%
[9]
  minimal effective concentration: 100 µM
[10]
  minimal effective concentration: 100 µM
[11]
  minimal effective concentration: 100 µM
[12]
  minimal effective concentration: 100 µM
[13]
  minimal effective concentration: 100 µM
[14]
  minimal effective concentration: 53.5 µM
[15]
  minimal effective concentration: 100 µM
[16]
  minimal effective concentration: 100 µM

## O=C1C=CC(=O)C(c2ccc(Cl)cc2)=C1 [4-Cl-BQ, 2-(4-Chlorophenyl)benzo-2,5-quinone]
[1]
  viability at 0.01 µM: 103%
  viability at 0.1 µM: 96.5%
  viability at 1 µM: 100%
  viability at 10 µM: 103%
  viability at 100 µM: 29.9%
[2]
  activity at 0.01 µM: 106%
  activity at 0.1 µM: 116%
  activity at 1 µM: 117%
  activity at 10 µM: 91.5%
  activity at 100 µM: 8.08%
[3]
  activity at 0.01 µM: 103%
  activity at 0.1 µM: 95.9%
  activity at 1 µM: 100%
  activity at 10 µM: 102%
  activity at 100 µM: 0.09%
[4]
  viability at 0.01 µM: 103%
  viability at 0.1 µM: 96.2%
  viability at 1 µM: 100%
  viability at 10 µM: 103%
  viability at 100 µM: 100%
Cardiomyocyte, 1.5 h, cardiomyocytes (cm), cam, 90 min, read-out: POD cm.cam.90min
  minimal effective concentration: 37.6 µM
Cardiomyocyte, 1.5 h, cardiomyocytes (cm), mii, 90 min, read-out: POD cm.mii.90min
  minimal effective concentration: 9.33 µM
Cardiomyocyte, 1.5 h, cardiomyocytes (cm), mito, 90 min, read-out: POD cm.mito.90min
  minimal effective concentration: 38.7 µM
Cardiomyocyte, 1.5 h, cardiomyocytes (cm), tc, 90 min, read-out: POD cm.tc.90min
  minimal effective concentration: 100 µM
[5]
  viability at 0.01 µM: 92.6%
  viability at 0.1 µM: 98.4%
  viability at 1 µM: 105%
  viability at 10 µM: 51.1%
  viability at 100 µM: 66.6%
[6]
  activity at 0.01 µM: 100%
  activity at 0.1 µM: 110%
  activity at 1 µM: 97.3%
  activity at 10 µM: 128%
  activity at 100 µM: 0.9%
[7]
  activity at 0.01 µM: 89.4%
  activity at 0.1 µM: 96.5%
  activity at 1 µM: 103%
  activity at 10 µM: 50.9%
  activity at 100 µM: 0.05%
[8]
  viability at 0.01 µM: 92.8%
  viability at 0.1 µM: 99.1%
  viability at 1 µM: 105%
  viability at 10 µM: 50.4%
  viability at 100 µM: 100%
Cardiomyocyte, 24 h, cardiomyocytes (cm), cam, 24 hrs, read-out: POD cm.cam.24hrs
  minimal effective concentration: 0.06 µM
Cardiomyocyte, 24 h, cardiomyocytes (cm), mii, 24 hrs, read-out: POD cm.mii.24hrs
  minimal effective concentration: 46.4 µM
Cardiomyocyte, 24 h, cardiomyocytes (cm), mito, 24 hrs, read-out: POD cm.mito.24hrs
  minimal effective concentration: 3.85 µM
Cardiomyocyte, 24 h, cardiomyocytes (cm), tc, 24 hrs, read-out: POD cm.tc.24hrs
  minimal effective concentration: 100 µM
[9]
  minimal effective concentration: 37.6 µM
[10]
  minimal effective concentration: 9.33 µM
[11]
  minimal effective concentration: 38.7 µM
[12]
  minimal effective concentration: 100 µM
[13]
  minimal effective concentration: 0.06 µM
[14]
  minimal effective concentration: 46.4 µM
[15]
  minimal effective concentration: 3.85 µM
[16]
  minimal effective concentration: 100 µM
